This is an account of results in PMC7926793, “Synthesis and Biological Evaluation of 1-(Diarylmethyl)-1H-1,2,4-triazoles and 1-(Diarylmethyl)-1H-imidazoles as a Novel Class of Anti-Mitotic Agent for Activity in Breast Cancer” (Pharmaceuticals, 2021).

The subject of assay [1] is MCF-7 human breast cancer cells. Conditions: MCF-7 section; read-out: IC50 of phenstatin positive control; cited from earlier work.
The test system of assay [2] is tubulin (microtubule network) in MCF-7 cells. Nature of the assay: immunofluorescence confocal microscopy of microtubule network. In kind it is cell-based, human. Conditions: 1 μM, 16 h. The method, then: Confocal microscopy was used to study the effects of drug treatment on MCF-7 cytoskeleton. For immunofluorescence, MCF-7 cells were seeded at 1 × 10^5 cells/mL on eight chamber glass slides (BD Biosciences). […] Following treatment, cells were gently washed in PBS, fixed for 20 min with 4% paraformaldehyde in PBS, and permeabilised in 0.5% Triton X-100. Following washes in PBS containing 0.1% Tween (PBST), cells were blocked in 5% bovine serum albumin diluted in PBST. […] Following washes in PBST, the cells were mounted in Ultra Cruz Mounting Media (Santa Cruz Biotechnology, Santa Cruz, CA) containing 4,6-diamino-2-phenolindol dihydrochloride (DAPI). Images were captured by Leica SP8 confocal microscopy with Leica application suite X software. All images in each experiment were collected on the same day using identical parameters. Experiments were performed on three independent occasions.

The next assay relates to HL-60 leukaemia cells. Also on record: method as in PMID 19647439. Conditions: read-out: IC50 of phenstatin in HL-60; cited from earlier work.
In assay [3] the test system is MCF-7 human breast cancer cells. Nature of the assay: alamarBlue cell viability assay. In kind it is cell-based. Particulars: Homo sapiens, MCF7, 72 h, read-out: cell viability (viable cells). As for the experimental part: The human breast carcinoma cell line MCF-7 was purchased from the European Collection of Animal Cell Cultures (ECACC) and cultured in Eagles minimum essential medium with 10% foetal bovine serum, 2 mM L-glutamine, and 100 μg/mL penicillin/streptomycin. The medium was supplemented with 1% non-essential amino acids. The human breast carcinoma cell line MDA-MB-231 was purchased from the ECACC. MDA-MB-231 cells were maintained in Dulbecco’s modified Eagle’s medium (DMEM) supplemented with 10% (v/v) foetal bovine serum, 2 mM L-glutamine, and 100 μg/mL penicillin/streptomycin (complete medium). HL-60 cells were derived from a patient with acute myeloid leukaemia and were obtained from the ECACC (Salisbury, UK). Cells were cultured in RPMI-1640 Glutamax medium supplemented with 10% FCS media and 100 μg/mL penicillin/streptomycin. MCF-10A cells were obtained as a kind gift from Dr Susan McDonnell, School of Chemical and Bioprocess Engineering, University College Dublin and were cultured in Dulbecco’s Modified Eagle Medium: Nutrient Mixture F-12 (DMEM/F12; Gibco) supplemented with 5% horse serum (Invitrogen), 20 ng mL^−1 epidermal growth factor (Merck Millipore), 0.5 μg mL^−1 hydrocortisone (Sigma,-Aldrich, Arklow, Co. Wicklow, Ireland), 100 ng mL^−1 cholera toxin (Sigma, Aldrich, Arklow, Co. Wicklow, Ireland), 10 μg mL^−1 insulin (Sigma, Aldrich, Arklow, Co. Wicklow, Ireland), and penicillin/streptomycin 5000 U mL^−1 (1%)(Gibco, Biosciences, 3 Charlemont Terrace, Crofton Road, Dun Laoghaire, Co Dublin, A96 K7H7, Ireland). Cells were maintained at 37 °C in 5% CO2 in a humidified incubator. All cells were sub-cultured 3 times/week by trypsinisation using TrypLE Express (1×).
Cells were seeded at a density of 2.5 × 10^4 cells/well (MCF-7, MDA-MB-231, MCF-10A cells) and 1 × 10^4 cells/well (HL-60) in 96-well plates (200 μL per well). After 24 h, cells were then treated with either medium alone, vehicle control (1% ethanol (v/v)) or with serial dilutions of CA-4 (4a), phenstatin (7a) or selected compounds (0.001–100 μM) in triplicate. Cell proliferation for MCF-7, MDA-MB-231, and MCF-10A cells was analysed using the alamarBlue assay (Invitrogen Corp.) according to the manufacturer’s instructions. After 67–69 h, alamarBlue (10% (v/v)) was added to each well, and plates were incubated for 3–5 h at 37 °C in the dark. Fluorescence was read using a 96-well fluorimeter with excitation at 530 nm and emission at 590 nm. Results were expressed as percentage viability relative to vehicle control (100%).

Assay [4] concerns MDA-MB-231 human breast cancer cells. Also on record: method as in PMID 25721862. Particulars: read-out: reported IC50 of phenstatin in MDA-MB-231 cells; cited from earlier work.
The subject of assay [5] is MCF-7 cells. Nature of the assay: cell cycle analysis, PI staining, flow cytometry. In kind it is cell-based, human. Conditions: 1 μM. As for the experimental part: The cells were collected by trypsinisation and centrifuged at 800× g for 15 min. Cells were washed twice with ice-cold phosphate-buffered saline (PBS) and fixed in ice-cold 70% ethanol overnight at −20 °C.
For orientation: A flow cytometer gives signals particle by particle.

Another assay deals with MDA-MB-231 cells. Nature of the assay: Annexin V/PI apoptotic assay. Conditions: for total apoptotic cells: 48 h. Type of assay: cell-based, human. As for the experimental part: (§1) Apoptotic cell death was detected by flow cytometry using Annexin V and propidium iodide (PI). MCF-7 and MDA-MB-231 cells were seeded in 6-well plates at a density of 1 × 10^5 cells/mL (3 mL) and treated with either vehicle (0.1% (v/v) EtOH), Phenstatin (7a), or 21l at different concentrations for the selected time. Then, cells were harvested and prepared for flow cytometric analysis. […] Then, cells were washed once in binding buffer and then re-suspended in PI-containing binding buffer (1:1000). […] Four populations are produced during the assay: Annexin V and PI negative (Q4, healthy cells), Annexin V positive and PI negative (Q3, early apoptosis), Annexin V and PI positive (Q2, late apoptosis), and Annexin V negative and PI positive (Q1, necrosis).

In assay [6] the test system is MCF-7 cells. Briefly: Annexin V/PI apoptotic assay. In kind it is cell-based, human. Particulars: for Annexin V-stained positive cells (total apoptotic cells): 48 h. The method, then: as §1
For assay [7], the system named is purified bovine brain tubulin. Briefly: tubulin polymerisation assay. In kind it is biochemical. Conditions: 10 μM. As for the experimental part: The assembly of purified bovine tubulin was monitored using a kit, BK006, purchased from Cytoskeleton Inc. (Denver, CO, USA). […] Light is scattered proportionally to the concentration of polymerised microtubules in the assay. Therefore, tubulin assembly was monitored turbidimetrically at 340 nm in a Spectramax 340 PC spectrophotometer (Molecular Devices, Sunnyvale, CA, USA). The absorbance was measured at 30 s intervals for 60 min.

Where [8] appears, read: Homo sapiens, MDA-MB-231, 48 h, read-out: Viable.
Setting [9] is: Homo sapiens, MCF7, 48 h, read-out: Viable.

A word on the IC50: it is the midpoint of a concentration-inhibition curve. Regarding `COc1ccc(C(=O)c2cc(OC)c(OC)c(OC)c2)cc1O` [phenstatin, (3-Hydroxy-4-Methoxyphenyl)(3,4,5-Trimethoxyphenyl)Methanone, reference compound], the figures for the concentration for half-maximal inhibition (IC50) (in assay [1]; in the assay on HL-60 leukaemia cells; in assay [4]) were 1.61 ± 2.7 nM, 31 nM and 1500 nM, respectively. Further, in assay [2], the “effect on microtubule network of MCF-7 cells” value is recorded as “extensive depolymerisation of tubulin”. In addition, the viability at 1 µM in assay [3] is 30%. For the same molecule, the “cells in the G2/M phase” value stood at 65% in the assay with MCF-7 cells [5] (24 h), 49% with MCF-7 cells [5] (48 h) and 51% in the assay with MCF-7 cells [5] (72 h). Besides, the “cells undergoing apoptosis (sub-G1)” value with MCF-7 cells [5] (72 h) is 18%. Moreover, the viability at 0.1 µM in the assay on MDA-MB-231 cells (setting [8]) was determined as 80.4%; with MCF-7 cells [6] (setting [9]), 58.4%. Further, the viability at 0.5 µM in the assay with MDA-MB-231 cells (setting [8]) was found to be 80.6%; in the assay with MCF-7 cells [6] (setting [9]) it was 50.7%. Moreover, the total apoptotic cells in the assay with MDA-MB-231 cells (MDA-MB-231, 0.1 μM) was determined as 16.6%; with MDA-MB-231 cells (MDA-MB-231, 0.5 μM) it was 17.9%. Besides, the “Annexin V-stained positive cells (total apoptotic cells)” value was 36.1% with MCF-7 cells [6] (MCF-7, 0.1 μM) and 46% in the assay on MCF-7 cells [6] (MCF-7, 0.5 μM). Further, the “effect on tubulin polymerisation and assembly” value in [7] was “significant inhibition of tubulin polymerisation”.
